The supplement of paper PMC10307832

Columns and labels:
Assay in all cases: relative viability (nuclei count vs DMSO), 5 days (fraction); higher = more cells survive
Sulindac + Trametinib = compound: CC1=C(CC(=O)O)c2cc(F)ccc2/C1=C\c1ccc([S+](C)[O-])cc1 [Sulindac] + CC(=O)Nc1cccc(-n2c(=O)n(C3CC3)c(=O)c3c(Nc4ccc(I)cc4F)n(C)c(=O)c(C)c32)c1 [Trametinib] (partner 0.02 µM)
Summary of the method: (§1)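 Lung cancer cell lines, seeded in 1536-well plates, were treated the following day by pin tool with a single drug or with five library-drug doses (not always all listed) in √10 steps on top of a fixed anchor-drug dose. Cells were fixed and nuclei stained in one step after 5 days, and nuclei were counted. Relative viability is the nuclei count for treated wells divided by that for vehicle wells, reported as medians of duplicate plates.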

[1] = compound: CN[C@@H]1C[C@H]2O[C@@](C)([C@@H]1OC)n1c3ccccc3c3c4c(c5c6ccccc6n2c5c31)C(=O)NC4 [Staurosporine] + COc1cc2c(Oc3ccc(NC(=O)C4(C(=O)Nc5ccc(F)cc5)CC4)cc3F)ccnc2cc1OCCCN1CCOCC1 [Foretinib] (partner 0.25 µM)
Summary of the method: as §1

5-Fluorouracil + OSI-027 = compound: O=c1[nH]cc(F)c(=O)[nH]1 [5-Fluorouracil] + COc1cccc2cc(-c3nc([C@H]4CC[C@H](C(=O)O)CC4)n4ncnc(N)c34)[nH]c12 [OSI-027] (partner 0.5 µM)
Summary of the method: as §1

[2] = compound: O=c1[nH]cc(F)c(=O)[nH]1 [5-Fluorouracil] + Nc1nc2[nH]cc(CCc3ccc(C(=O)N[C@@H](CCC(=O)O)C(=O)O)cc3)c2c(=O)[nH]1 [Pemetrexed] (partner 0.2 µM)
Summary of the method: as §1

Which relative viability (Sulindac + Trametinib; first compound 0.08 µM) does the source give for UMC-11 here?
Its relative viability is 0.733.

What about the relative viability (Sulindac + Trametinib; first compound 0.253 µM) of the same cell line?
The relative viability was 0.764.

And the relative viability (Sulindac + Trametinib; first compound 0.8 µM)?
Its relative viability is 0.679.

What about the relative viability (Sulindac + Trametinib; first compound 2.53 µM) of the same cell line?
Its relative viability is 0.654.

What about the relative viability (Sulindac + Trametinib; first compound 8 µM) of the same cell line?
The relative viability was 0.757.

What about the relative viability ([1]; first compound 0.005 µM) of the same cell line?
The relative viability was 1.02.

What about the relative viability ([1]; first compound 0.01581 µM) of the same cell line?
The relative viability was 0.574.

And the relative viability ([1]; first compound 0.05 µM)?
The relative viability was 0.326.

What about the relative viability ([1]; first compound 0.1581 µM) of the same cell line?
Its relative viability is 0.116.

And the relative viability ([1]; first compound 0.5 µM)?
The relative viability was 0.077.

And the relative viability (5-Fluorouracil + OSI-027; first compound 0.02 µM)?
Its relative viability is 0.445.

What about the relative viability (5-Fluorouracil + OSI-027; first compound 0.2 µM) of the same cell line?
The relative viability was 0.477.

What about the relative viability (5-Fluorouracil + OSI-027; first compound 0.6325 µM) of the same cell line?
The relative viability was 0.406.

What about the relative viability (5-Fluorouracil + OSI-027; first compound 2 µM) of the same cell line?
The relative viability was 0.372.

What about the relative viability ([2]; first compound 0.02 µM) of the same cell line?
The relative viability was 0.807.

What about the relative viability ([2]; first compound 0.2 µM) of the same cell line?
Its relative viability is 0.563.

What about the relative viability ([2]; first compound 0.6325 µM) of the same cell line?
Its relative viability is 0.508.
